ChEMBL document CHEMBL6071154, “A patent review of SCF E3 ligases inhibitors for cancer:Structural design, pharmacological activities and structure-activity relationship” (Eur J Med Chem, 2024)
Blank lines part the entries; values can stand above or below the compound they belong to.

Key:
[1] = system: NCI-H2170; experiment: Antiproliferative activity against human NCI-H2170 cells assessed as reduction in cell growth incubated for 72 hrs by CCK-8 assay; assay type: functional, cell-based; settings: NCI-H2170, 72 h
[2] = system: NCI-H358; experiment: Antiproliferative activity against human NCI-H358 cells assessed as reduction in cell growth incubated for 72 hrs by CCK-8 assay; assay type: functional, cell-based; settings: NCI-H358, 72 h
[3] = system: DU-145; experiment: Antiproliferative activity against human DU-145 cells assessed as reduction in cell viability incubated for 48 hrs by CCK8 assay; assay type: functional, cell-based; settings: DU-145, 48 h
[4] = system: LNCaP; experiment: Antiproliferative activity against human LNCAP cells assessed as reduction in cell viability incubated for 24 hrs by MTT assay
[5] = target: S-phase kinase-associated protein 2 (Homo sapiens, UniProt Q13309); experiment: Inhibition of SKP2 (unknown origin)
[6] = system: PC-3; experiment: Antitumor activity against human PC-3 cells xenografted in mouse assessed as tumor growth inhibition at 10 mg/kg, po administered once daily relative to control; assay type: functional; set-up: scale not given: the % may be the effect or the level left
[7] = system: HT-1080; experiment: Antiproliferative activity against human HT-1080 cells assessed as reduction in cell viability; assay type: functional, cell-based
[8] = system: A549; experiment: Antiproliferative activity against human A549 cells assessed as reduction in cell growth; assay type: functional, cell-based
[9] = Inhibition of NF-kappaB (unknown origin); set-up: species or system Homo sapiens
[10] = system: HGC-27; experiment: Antiproliferative activity against human HGC-27 cells assessed as reduction in cell growth incubated for 24 hrs by CCK-8 assay; assay type: functional, cell-based; settings: HGC-27, 24 h

S-phase kinase-associated protein 2, sequence (Q13309 whole entry): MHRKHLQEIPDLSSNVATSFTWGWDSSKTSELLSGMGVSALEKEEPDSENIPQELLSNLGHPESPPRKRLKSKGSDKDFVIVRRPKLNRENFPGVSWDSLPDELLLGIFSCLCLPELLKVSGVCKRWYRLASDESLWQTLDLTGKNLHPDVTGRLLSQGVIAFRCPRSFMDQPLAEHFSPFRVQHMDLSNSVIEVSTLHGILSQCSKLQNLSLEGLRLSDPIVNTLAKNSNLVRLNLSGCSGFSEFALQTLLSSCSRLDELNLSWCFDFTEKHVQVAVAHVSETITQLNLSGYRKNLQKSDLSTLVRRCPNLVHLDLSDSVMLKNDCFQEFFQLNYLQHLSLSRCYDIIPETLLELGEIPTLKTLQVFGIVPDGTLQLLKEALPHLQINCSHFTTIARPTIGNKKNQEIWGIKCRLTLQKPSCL

SMILES: O=C(Nc1cc(F)cc(F)c1)Nc1cccc(COc2ccccc2Cl)c1
IC50 [1]: 7.93 µM
IC50 [2]: 8.1 µM

SMILES: N#Cc1ccc(OCc2cccc(NC(=O)Nc3cc(F)cc(F)c3)c2)cc1
IC50 [1]: 4.12 µM
IC50 [2]: 5.8 µM

SMILES: CS(=O)(=O)c1ccc(CCC(=O)Nc2ccccn2)cc1
IC50 [4]: 3.56 µM

SMILES: COc1cc(C)ccc1-c1nc(C)c(NC(=O)OCc2ccc3c(c2)nc2n3CCOC2)s1
IC50 [7]: 0.00175 µM

SMILES: Cc1ccc(S(=O)(=O)Nc2cc(Oc3cccc(C#N)c3)cc3cccnc23)cc1
IC50 [8]: 6.48 µM
IC50 [7]: 6.83 µM

SMILES: CCn1nnc2cc(COC(=O)Nc3sc(-c4ccc(C)cc4OC)nc3C)ccc21
IC50 [7]: 0.00164 µM

SMILES: O=C(O)c1ccc(N2N=C(Cc3ccccc3)/C(=C\c3ccc(-c4ccccc4F)o3)C2=O)cc1
IC50 [9]: 5.2 µM

SMILES: O=C(Nc1cc(F)cc(F)c1)Nc1cccc(COc2ccc(Cl)cc2)c1
IC50 [1]: 3.19 µM
IC50 [2]: 7.9 µM

SMILES: CC(C)(C)c1cc2cc(NC(=O)c3cccs3)ccc2[nH]1
IC50 [4]: 4.63 µM

SMILES: O=C(Nc1cc(F)cc(F)c1)Nc1cccc(CNc2ccc(Cl)cc2)c1
IC50 [1]: 7.31 µM
IC50 [2]: 6.97 µM

SMILES: O=C(OCn1ncc(Cl)c(Cl)c1=O)c1cccc(C(F)(F)F)c1
IC50 [4]: 1.71 µM

SMILES: Cc1ccc(S(=O)(=O)Nc2cc(Oc3cc(F)cc(F)c3)cc3cccnc23)cc1
IC50 [8]: 4.11 µM
IC50 [7]: 0.08 µM

SMILES: O=C(Nc1cc(F)cc(F)c1)Nc1cccc(COc2ccc(Cl)cc2Cl)c1
IC50 [1]: 5.55 µM
IC50 [2]: 6.4 µM

Second part, led by results:

IC50 [3]: 19.7 µM
SMILES: C/C=C/C(=O)c1c(OC)cc(=O)oc1C

IC50 [1]: 5.6 µM
IC50 [2]: 5.85 µM
SMILES: O=C(Nc1cc(F)cc(F)c1)Nc1cccc(COc2ncc(Cl)cn2)c1

IC50 [1]: 4.47 µM
IC50 [2]: 4.73 µM
SMILES: CC(Oc1ccc(C#N)cc1)c1cccc(NC(=O)Nc2cc(F)cc(F)c2)c1 (configuration not stated)

IC50 [5]: 2.76 µM
SMILES: O=C(CCl)NC1CCN(c2cnc(-c3ccccc3)c(-c3ccccc3)n2)CC1
Activity [6]: 55.68%

IC50 [4]: 1.09 µM
SMILES: CCCCc1ccc(NC(C)=O)c(C)c1

IC50 [8]: 4.09 µM
IC50 [7]: 0.74 µM
SMILES: COc1ccc(Oc2cc(NS(=O)(=O)c3ccc(C)cc3)c3ncccc3c2)cc1

IC50 [3]: 50 µM
SMILES: CCOc1nc2cccc(C(=O)OCc3oc(=O)oc3C)c2n1Cc1ccc(-c2ccccc2-c2noc(=O)[nH]2)cc1 [AZILSARTAN MEDOXOMIL]
IC50 [10]: 0.399 µM
